# Laboratory results as given in patent publication US8906904B2, “Alkoxy pyrazoles as soluble guanylate cyclase activators” (Boehringer Ingelheim International GmbH, priority 2012, dated 2014).
# Key:
# [1] = target: T1, human soluble guanylate cyclase alpha 1 and beta 1 subunits (sGC) (Homo sapiens, UniProt Q02108+Q02153); test: sGC cellular activator assay (cGMP, HTRF); format: cell-based; settings: CHO cells stably expressing human sGC alpha 1/beta 1, preincubated with 40 microM ODQ; cGMP readout; assay run with and without 50% human serum, Table 2 does not say which
# T1 construct: expressed in transfected cells; host or cells: Chinese hamster ovary (CHO) cells, stably transfected
# T1 sequence (Q02108 1-690): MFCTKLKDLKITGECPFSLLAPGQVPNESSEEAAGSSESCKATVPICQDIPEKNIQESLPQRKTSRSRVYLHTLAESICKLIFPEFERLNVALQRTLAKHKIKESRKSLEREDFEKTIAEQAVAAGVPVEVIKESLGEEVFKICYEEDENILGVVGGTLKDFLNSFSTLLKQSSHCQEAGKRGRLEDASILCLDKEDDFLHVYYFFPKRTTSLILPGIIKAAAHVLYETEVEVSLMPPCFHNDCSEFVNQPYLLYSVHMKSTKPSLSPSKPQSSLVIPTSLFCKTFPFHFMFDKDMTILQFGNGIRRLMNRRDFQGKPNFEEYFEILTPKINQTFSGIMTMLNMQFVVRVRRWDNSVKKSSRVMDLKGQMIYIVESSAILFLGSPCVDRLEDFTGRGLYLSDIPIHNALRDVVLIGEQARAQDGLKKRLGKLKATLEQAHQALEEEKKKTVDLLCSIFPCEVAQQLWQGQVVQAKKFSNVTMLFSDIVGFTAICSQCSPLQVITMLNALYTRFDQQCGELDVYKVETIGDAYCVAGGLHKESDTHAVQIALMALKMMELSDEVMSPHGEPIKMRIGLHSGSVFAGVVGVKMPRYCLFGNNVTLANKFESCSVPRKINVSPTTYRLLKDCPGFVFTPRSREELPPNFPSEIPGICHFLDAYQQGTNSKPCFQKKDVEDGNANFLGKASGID
# T1 sequence (Q02153 1-619): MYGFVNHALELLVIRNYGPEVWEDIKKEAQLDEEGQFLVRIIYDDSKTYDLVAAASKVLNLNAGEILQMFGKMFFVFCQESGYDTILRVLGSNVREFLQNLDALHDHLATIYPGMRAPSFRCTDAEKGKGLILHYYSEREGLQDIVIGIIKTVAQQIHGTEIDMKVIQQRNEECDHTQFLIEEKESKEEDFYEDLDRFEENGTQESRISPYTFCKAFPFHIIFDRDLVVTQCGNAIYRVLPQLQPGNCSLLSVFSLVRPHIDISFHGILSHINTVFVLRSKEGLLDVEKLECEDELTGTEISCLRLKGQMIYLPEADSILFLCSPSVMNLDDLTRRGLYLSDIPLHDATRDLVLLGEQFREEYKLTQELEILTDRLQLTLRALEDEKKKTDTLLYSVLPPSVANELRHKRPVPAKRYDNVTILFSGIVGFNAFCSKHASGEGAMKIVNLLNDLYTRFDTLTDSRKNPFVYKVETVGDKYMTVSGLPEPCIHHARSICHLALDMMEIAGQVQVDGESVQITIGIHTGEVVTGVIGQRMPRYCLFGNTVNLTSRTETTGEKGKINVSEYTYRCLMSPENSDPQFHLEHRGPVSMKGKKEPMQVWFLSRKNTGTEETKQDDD
# Experimental: The sGC cellular activator assay is performed in the presence and absence of 50% human serum (HS) using Chinese hamster ovary cells that have been stably transfected to express the human soluble guanylate cyclase alpha 1 and beta 1 subunits (sGC). Cells are preincubated with 40 microM 1H-[1,2,4]oxadiazolo[4,3-a]quinoxalin-1-one (ODQ), an sGC inhibitor, for one h in buffer containing 0.1% bovine serum albumin and 3-isobutyl-1-methylxanthine (IBMX). Concentration response curves are prepared for test compounds in DMSO. An intermediate dilution of the compounds is performed in either buffer containing IBMX or type AB HS containing IBMX. Diluted compounds are added to cells and they are incubated at room temperature for thirty min. cGMP is measured using a CisBio homogeneous time resolved fluorescence kit and the EC50 is calculated for each compound.
# Representative compounds of the present invention were tested for activity the above assay. Preferred compounds have an EC50 of <1,000 nM in the above assay and more preferred compounds have an EC50<200 nM.
# [2] = human liver microsome (HLM) metabolic stability assay; format: in vitro ADME; settings: human liver microsomes; % hepatic blood flow calculated from t1/2
# Experimental: The 5 time point, high-throughput human liver microsome (HLM) metabolic stability assay is designed to determine in vitro compound metabolism. Compounds are incubated with HLMs at a concentration of 1 uM, at 37° C., for a total of 60 min. The percent of compound remaining at 5, 15, 30, and 60 min is used to calculate the t½ (min), CLint (mL/min/kg), CLh (mL/min/kg), and % Qh. The assay is based on a 96-well format and can accommodate up to 92 compounds per plate (n=1).
# Using the 96-well multi-channel head, the Biomek FX, equipped with a Peltier heating block/shaker, is programmed to accomplish the following steps: • 1. Pipette 175 uL of 1.15 mg/mL microsomes into each of the 96 conical inserts (Analytical Sales and Products, catalog number 96PL05) that fit into the plate of the Peltier heating block/shaker (the incubation plate) • 2. Add 5 uL of compounds from the assay plate to the microsomes and shake the mixture at 600 rpm at 42.1° C. for 10 min (a setting of 42.1° C. on the Peltier is required for the samples to incubate at 37° C.) • 3. After 10 min, prompt the user to add the NADPH plate to the deck and add 20 uL from the NADPH plate to the incubation plate to start the reaction • 4. Add 215 uL of 100%, cold acetonitrile containing an internal standard(s) to a 0 minute, 5 minute, 15 minute, 30 minute, and 60 minute “quench” plate • 5. At 0 min, 5 min, 15 min, 30 min, and 60 min into the incubation, aspirate 12 uL from the incubation mixture and add it to the quench solution to stop the reaction • 6. Add 185 uL HPLC grade water to each well of the 0, 5, 15, 30 and 60 minute quench plates to dilute compounds to the appropriate concentration for the mass spectrometer
# After all time points are collected, the quench plates are sealed with 96-well pierceable plate mats or heat sealing foil and centrifuged at 3000 rpm for 15 min to pellet the microsomes.
# The plates are analyzed using LC/MS/MS with electron spray ionization (ESI) and the previously determined MRM transitions. The LC method includes the following parameters:
# Using an Excel template in Activitybase, the peak areas corresponding to 5, 15, 30 and 60 min are compared to the peak area at 0 min to calculate the percent of remaining compound using the following equation: Percent compound remaining=(AUC at Time t min/AUC at Time 0 min)×100 where t=0, 5, 15, 30 or 60 min.
# Time (min) is plotted against the natural logarithm (Ln) of the percent compound remaining to determine the slope. The slope is used to calculate t½ (min) using the equation, t½=0.693/slope.
# Preferred compounds have % Qh values of less than 24.
# [3] = Assessment of solubility (McIlvaine buffers, 24 h shake, UPLC-UV); format: physicochemical; settings: kinetic from dmso stock
# Experimental: Solubility is measured by the following method.
# 100 uL, 10 mM DMSO stock solution of each compound is prepared in a 96 well plate format. The experiment is done in single determination at 3 pH values (2.2, 4.5 and 6.8). For each pH and one reference, 40 uL of each compound is needed.
# McIlvaine pH 2.2: To 2.076 g citric acid monohydrate and 0.043 g Na2HPO4×2H2O add 100 ml deionized water
# McIlvaine pH 4.5: To 1.166 g citric acid monohydrate and 1.585 g Na2HPO4×2H2O add 100 ml deionized water
# McIlvaine pH 6.8: To 0.476 g citric acid monohydrate and 2.753 g Na2HPO4×2H2O add 100 ml deionized water
# With a suitable liquid handling device (Multipette® or a liquid handler) 390 uL of each buffer solution and 10 uL of compound is added to each well of a 96 deep well plate. The plates are covered firmly and shaken for 24 h on an over head shaker (at 54 RPM) at room temperature. The DMSO content in the final buffer is 2.5% v/v.
# After 24 h the plates are centrifuged to remove droplets on the lid before opening (for ˜5 min at 2500 RPM).
# The filtration is done under vacuum with Millipore 96 well filter plate. Filtrate is collected in a deep well plate and transferred to a suitable plate for UPLC analysis.
# The reference plate is prepared by adding 10 uL of compound to 390 uL of 50:50 acetonitrile/water in a 96 deep well plate and transferred to a suitable plate for UPLC analysis. Wells are checked visually for precipitation, any presence noted under comments in reported results.
# The samples are measured with UPLC-UV using the chromatographic method described below.
# Waters Empower®2 software is used for generating Sample Sets (according to the plate layout), Sample Set Methods and Instrument Methods.
# One Sample Set comprises the methods for three 96 well plates (one reference plate and two sample plates, and includes one Sample Set Method and one Instrument Method).
# 3. Data Processing and Analysis
# The UV chromatograms collected at 254 nm are integrated and processed.
# It is assumed that the compound is completely dissolved in the reference solution (50:50 acetonitrile/water)
Compound,EC50 [1] [nM],HLM (% Qh) [2] [% Qh],"solubility at 24 h ([3]; pH 2.2, aqueous buffer) [µg/mL]","solubility at 24 h ([3]; pH 4.5, aqueous buffer) [µg/mL]","solubility at 24 h ([3]; pH 6.8, aqueous buffer) [µg/mL]"
COc1c(C(=O)O)cnn1-c1cccc(-c2cccc(C)c2OCc2ccc3c(c2C)CN(C2CCOCC2)C3)n1 [Compound 256],14,<24,–,–,–
COc1c(C(=O)O)cnn1-c1cccc(-c2cccc(C)c2OCc2cc(C)c3c(c2C)CN(CC2COCCO2)C3)n1 (centres unmarked) [Compound 246],6.5,<24,–,–,–
COc1c(C(=O)O)cnn1-c1cccc(-c2cccc(C)c2OCc2cc(C)c3c(c2C)CN(S(=O)(=O)c2ccc(C)cc2)C3)n1 [Compound 138],54,68,–,–,–
COc1c(C(=O)O)cnn1-c1cccc(-c2cccc(C)c2OCc2cc(C)c3c(c2)CN(C2CCOCC2)C3)n1 [Compound 255],9.5,<24,–,–,–
Cc1cccc(-c2cccc(-n3ncc(C(=O)O)c3OC(C)C)n2)c1OCc1ccc2c(c1C)CCN([C@@H]1CCCOC1)C2 [Compound 116],28,<24,–,–,–
COc1c(C(=O)O)cnn1-c1cccc(-c2cccc(C)c2OCc2ccc3c(c2C)CN(C2COC2)C3)n1 [Compound 257],14,<24,–,–,–

# Results, then the compound that gave them:
EC50 [1] [nM],HLM (% Qh) [2] [% Qh],"solubility at 24 h ([3]; pH 2.2, aqueous buffer) [µg/mL]","solubility at 24 h ([3]; pH 4.5, aqueous buffer) [µg/mL]","solubility at 24 h ([3]; pH 6.8, aqueous buffer) [µg/mL]",Compound
15,<24,–,–,–,COc1c(C(=O)O)cnn1-c1cccc(-c2cccc(C)c2OCc2cc(C)c3c(c2)CN(C2COC2)C3)n1 [Compound 258]
–,<24,117,96,100,CCOc1c(C(=O)O)cnn1-c1cccc(-c2cccc(C)c2OCc2ccc3c(c2)CCNC3)n1 [Compound 60]
31,<24,–,–,–,COc1c(C(=O)O)cnn1-c1cccc(-c2cccc(C)c2OCc2ccc3c(c2)CN(C2CCOCC2)C3)n1 [Compound 59]
720,<24,–,–,–,CCOc1c(C(=O)O)cnn1-c1cccc(-c2cccc(C)c2OCc2ccc3c(c2C)CCN(C(CO)CO)C3)n1 [Compound 156]
10,<24,–,–,–,COc1c(C(=O)O)cnn1-c1cccc(-c2cccc(C)c2OCc2ccc3c(c2)CCN(C[C@H]2CCOC2)C3)n1 [Compound 192]
110,<24,–,–,–,CCOc1c(C(=O)O)cnn1-c1cccc(-c2cccc(C)c2OCc2ccc3c(c2)CN(C2CCOCC2)C3)n1 [Compound 216]
